Data published in patent publication US20070248633A1, “COMPOSITIONS CONTAINING A HYDROXYLATED DIPHENYLMETHANE COMPOUND, METHODS OF USE” (L'OREAL, priority 2006, published 2007).

Assay: Tests of solubilization of a hydroxylated diphenylmethane compound of formula (I) in solubilizers
Format: physicochemical
Settings: for % max solubility of the hydroxylated diphenylmethane compound of formula (I): optionally heated to 45° C., stirred one hour
Procedure: The compound Phenylethylbenzendiol marketed under the name Symwhite® by Symrise is used as hydroxylated diphenylmethane compound of formula (I).
This compound is weighed and placed in a sealed specimen tube.
Several solubilizers are tested: 10 ml of solubilizer are placed in a beaker and the compound Phenylethylbenzendiol is added mg per mg. The suspension, optionally heated to 45° C., is stirred by magnetic stirring for one hour.
The dissolution or non-dissolution of the hydroxylated diphenylmethane compound of formula (I), and its variation over time are then monitored.
The non-solubility of the hydroxylated diphenylmethane compound of formula (I) in the solubilizer is macroscopically characterized by a precipitate or just a cloudy solution, and microscopically by the presence of crystals.

amount solubilized (solubilizer: 2-octyldodecanol): more than 20 % by weight | amount solubilized (solubilizer: Dicaprylyl carbonate): more than 20 % by weight | amount solubilized (solubilizer: dimethyl isosorbide): more than 20 % by weight | amount solubilized (solubilizer: isopropyl N-lauroylsarcosinate (remainder of the solution consisting of the solubilizer)): up to 42 % by weight | amount solubilized (solubilizer: octyl methoxycinnamate): more than 20 % by weight | % max solubility of the hydroxylated diphenylmethane compound of formula (I) (solvent: 2-Octyldodecanol (EUTANOL G from COGNIS)): 22.52% | % max solubility of the hydroxylated diphenylmethane compound of formula (I) (solvent: Apricot oil (APRICOT KERNEL OIL from DESERT WHALE)): 10.00% | % max solubility of the hydroxylated diphenylmethane compound of formula (I) (solvent: Apricot oil (APRICOT KERNEL OIL from DESERT WHALE), listed as hydroxylated diphenylmethane compound (I)): ≤ 10% | % max solubility of the hydroxylated diphenylmethane compound of formula (I) (solvent: Dicaprylyl carbonate (CETIOL CC from COGNIS)): 26.74% | % max solubility of the hydroxylated diphenylmethane compound of formula (I) (solvent: Dimethyl isosorbide (ARLASOLVE DMI from UNIQEMA)): 31.30% | % max solubility of the hydroxylated diphenylmethane compound of formula (I) (solvent: Hydrogenated isoparaffin (PARLEAM from NOF CORPORATION), paraffin oil): not soluble | % max solubility of the hydroxylated diphenylmethane compound of formula (I) (solvent: Hydrogenated isoparaffin (PARLEAM from NOF CORPORATION), paraffin oil, listed as hydroxylated diphenylmethane compound (I)): does not make it possible to solubilize | % max solubility of the hydroxylated diphenylmethane compound of formula (I) (solvent: Isopropyl N-lauroylsarcosinate (ELDEW SL 205 from AJINOMOTO)): 42.00% | % max solubility of the hydroxylated diphenylmethane compound of formula (I) (solvent: Octyl methoxycinnamate (PARSOL MCX from GIVAUDAN (DSM Nutritional Products))): 26.00%
SMILES: CC(c1ccccc1)c1ccc(O)cc1O (centres unmarked) [4-(1-phenylethyl)-1,3-benzenediol]
